The subject of assay [1] is HDAC activity in primary mouse cortical cultures. As to the kind of experiment: Whole-Cell Histone Deacetylase (HDAC) Inhibition Assay in Primary Mouse Cortical Cultures. It counts as cell-based. The method in brief:
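Primary neocortical neurons from E17 Balb/C mouse embryos were plated at 50000 cells/well and treated at DIV9 with ten-point DMSO dilutions for 16-18 h at 37° C, in triplicate. BOC-Lys(Ac)-AMC substrate was then added for 1 h. Fluor de Lys developer containing 1 uM TSA produced a fluorophore, which was read.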

The target of assay [2] is one or more of HDAC-1, HDAC-2, HDAC-3, HDAC-4, HDAC-5, HDAC-6, HDAC-7, HDAC-8, HDAC-9, HDAC-10 and HDAC-11. Nature of the assay: Inhibition of Histone Deacetylase Enzymatic Activity (Boc-Lys(Ac)-AMC substrate, Fluor-de-Lys developer). It counts as biochemical. The following applies: read-out: HDAC Inhibition (IC50 μM) HDAC Enzyme. As for the experimental part:
The following protocol is used to assay the compounds of the disclosure.
The mixture is pre-incubated for 5 minutes at room temperature. The reaction is started by bringing the temperature to 37° C. and adding 16 μl substrate. Total reaction volume is 50 μl.
In the Tables 8, 9 and 10, A≦0.05 μM; 0.05 μM<B≦0.1 μM; 0.1 μM<C≦1 μM; and 1 μM<D≦10 μM.

The mark [3] stands for this setting: whole-cell (WC), mouse cortical neurons, Table 8, read-out: HDAC Inhibition (IC50 μM) WC mouse cortical neurons.
Where [4] appears, read: whole-cell (WC), mouse cortical neurons, Table 10, read-out: HDAC Inhibition (IC50 μM) WC mouse cortical neurons.
The mark [5] stands for this setting: read-out: HDAC Inhibition (IC50 μM) WC mouse cortical neurons, Table 10.

Molecules are shown by their SMILES. Read-outs that look alike come from different tables or passages of the source. Bounds are passed on as bounds.

For orientation: IC50 means the midpoint of a concentration-inhibition curve. Regarding `N#Cc1ccc2c(c1)Oc1ccccc1C(c1ccc(C(=O)NO)cc1)=N2` [(Z)-4-(7-cyanodibenzo[b,f][1,4]oxazepin-11-yl)-N-hydroxybenzamide], the values for the IC50 in assay [1] (setting [3]) and in assay [2] (Table 8) were 5 to 15 µM and under 0.05 µM, respectively.

Consider `O=C(NO)c1ccc(C2=Nc3cc(Cl)ccc3Oc3ccccc32)cc1` [(Z)-4-(8-chlorodibenzo[b,f][1,4]oxazepin-11-yl)-N-hydroxybenzamide], for which the IC50 in assay [1] (setting [3]) lay in the range of 5 to 15 µM; in assay [2] (Table 8), 0.1 to 1 µM.

As to `N#Cc1ccc2c(c1)N=C(c1ccc(C(=O)NO)cc1)c1ccccc1O2` [(Z)-4-(8-cyanodibenzo[b,f][1,4]oxazepin-11-yl)-N-hydroxybenzamide], the IC50 in assay [1] (setting [3]) lay in the range of 1 to 5 µM; in assay [2] (Table 8), 0.05 to 0.1 µM.

Consider `O=C(NO)c1ccc(C2=Nc3cc(Cl)ccc3Nc3ccccc32)cc1` [(Z)-4-(8-oro-5H-dibenzo[b,e][1,4]diazepin-11-yl)-N-hydroxybenzamide], for which the values for the IC50 in assay [1] (setting [3]) and in assay [2] (Table 8) were 1 to 5 µM and 0.05 to 0.1 µM, respectively.

As to `O=C(NO)c1ccc(C2=Nc3c(F)cccc3Oc3ccccc32)cc1` [(Z)-4-(9-fluorodibenzo[b,f][1,4]oxazepin-11-yl)-N-hydroxybenzamide], the values for the IC50 in assay [1] (setting [3]) and in assay [2] (Table 8) were 1 to 5 µM and 0.05 to 0.1 µM, respectively.

Take `O=C(NO)c1ccc(C2=Nc3ccccc3N(C3CC3)c3ncccc32)cc1` [(Z)-4-(11-cyclopropyl-11H-benzo[b]pyrido[2,3-e][1,4]diazepin-5-yl)-N-hydroxybenzamide]: the IC50 is under 1 µM in assay [1] (setting [3]) and under 0.05 µM in assay [2] (Table 8).

For the compound `CCN1c2ccccc2N=C(c2ccc(C(=O)NO)cc2)c2cccnc21` [(Z)-4-(11-ethyl-11H-benzo[b]pyrido[2,3-e][1,4]diazepin-5-yl)-N-hydroxybenzamide], the IC50 was under 1 µM in assay [1] (setting [3]) and under 0.05 µM in assay [2] (Table 8).

With `O=C(NO)c1ccc(CN2c3ccccc3C=Cc3ccccc32)cc1` [(Z)-4-((5H-dibenzo[b,f]azepin-5-yl)methyl)-N-hydroxybenzamide], the results for the IC50 in assay [1] (setting [4]) and in assay [2] (Table 10) were 5 to 15 µM and under 0.05 µM, respectively.

For `O=C(NO)c1ccc(C2=Nc3ccccc3Oc3ncccc32)cc1` [(Z)-4-(benzo[b]pyrido[3,2-f][1,4]oxazepin-5-yl)-N-hydroxybenzamide], the IC50 lay in the range of 1 to 5 µM in assay [1] (setting [3]) and 0.05 to 0.1 µM in assay [2] (Table 8).

Consider `O=C(NO)c1ccc(C2=Nc3ccccc3Oc3cnccc32)cc1` [(Z)-4-(benzo[b]pyrido[4,3-f][1,4]oxazepin-5-yl)-N-hydroxybenzamide], for which the IC50 in assay [1] (setting [3]) was under 1 µM; in assay [2] (Table 8), 0.1 to 1 µM.

Take `O=C(NO)c1ccc(C2=Nc3cccnc3Oc3ccccc32)cc1` [(Z)-4-(benzo[f]pyrido[2,3-b][1,4]oxazepin-6-yl)-N-hydroxybenzamide]: the results for the IC50 in assay [1] (setting [3]) and in assay [2] (Table 8) were 1 to 5 µM and under 0.05 µM, respectively.

For the compound `O=C(NO)c1ccc(C2=Nc3ccsc3Oc3ccccc32)cc1` [(Z)-4-(benzo[f]thieno[2,3-b][1,4]oxazepin-5-yl)-N-hydroxybenzamide], the IC50 in assay [1] (setting [3]) was 1 to 5 µM; in assay [2] (Table 8) it was 0.1 to 1 µM.

Turning to `O=C(NO)c1ccc(C2=Nc3ccccc3Oc3ccccc32)cc1F` [(Z)-4-(dibenzo[b,f][1,4]oxazepin-11-yl)-2-fluoro-N-hydroxybenzamide], the results for the IC50 in assay [1] (setting [3]) and in assay [2] (Table 8) were 5 to 15 µM and 0.1 to 1 µM, respectively.

`O=C(NO)c1ccc(C2=Nc3ccccc3Oc3ccccc32)cc1` [(Z)-4-(dibenzo[b,f][1,4]oxazepin-11-yl)-N-hydroxybenzamide]: the figures for the IC50 in assay [1] (setting [3]) and in assay [2] (Table 8) were under 1 µM and under 0.05 µM, respectively.

With `O=C(NO)c1ccc(C2=Nc3ccccc3Oc3c[n+]([O-])ccc32)cc1` [(Z)-5-(4-(hydroxycarbamoyl)phenyl)benzo[b]pyrido[4,3-f][1,4]oxazepine 2-oxide], the IC50 in assay [1] (setting [3]) fell in the range of 5 to 15 µM; in assay [2] (Table 8), 0.1 to 1 µM.

Regarding `O=C(CCCCN1c2ccccc2C=Cc2ccccc21)NO` [(Z)-5-(5H-dibenzo[b,f]azepin-5-yl)-N-hydroxypentanamide], the results for the IC50 in assay [1] (setting [4]) and in assay [2] (Table 10) were 5 to 15 µM and 0.1 to 1 µM, respectively.

`O=C(CCCCCN1c2ccccc2C=Cc2ccccc21)NO` [(Z)-6-(5H-dibenzo[b,f]azepin-5-yl)-N-hydroxyhexanamide]: the values for the IC50 in assay [1] (setting [4]) and in assay [2] (Table 10) were 1 to 5 µM and under 0.05 µM, respectively.

Regarding `O=C(CCCCCC(=O)N1c2ccccc2C=Cc2ccccc21)NO` [(Z)-7-(5H-dibenzo[b,f]azepin-5-yl)-N-hydroxy-7-oxoheptanamide], the IC50 in assay [1] (setting [4]) is under 1 µM; in assay [2] (Table 10), under 0.05 µM.

Take `O=C(CCCCCCN1c2ccccc2C=Cc2ccccc21)NO` [(Z)-7-(5H-dibenzo[b,f]azepin-5-yl)-N-hydroxyheptanamide]: the IC50 in assay [1] (setting [4]) is 1 to 5 µM; in assay [2] (Table 10), under 0.05 µM.

On to `O=C(CCCCCCC(=O)N1c2ccccc2C=Cc2ccccc21)NO` [(Z)-8-(5H-dibenzo[b,f]azepin-5-yl)-N-hydroxy-8-oxooctanamide], for which the IC50 in assay [1] (setting [4]) lay within 5 to 15 µM; in assay [2] (Table 10) it was 0.1 to 1 µM.

`CN1C(=O)CN=C(c2ccccc2)c2ccc(CCC(=O)NO)cc21` [(Z)-N-hydroxy-3-(1-methyl-2-oxo-5-phenyl-2,3-dihydro-1H-benzo[e][1,4]diazepin-8-yl)propanamide]: the values for the IC50 in assay [1] (setting [5]) and in assay [2] (Table 10) were 5 to 15 µM and 0.1 to 1 µM, respectively.

Consider `CN1C(=O)CN=C(c2ccc(C(=O)NO)cc2)c2ccccc21` [(Z)-N-hydroxy-4-(1-methyl-2-oxo-2,3-dihydro-1H-benzo[e][1,4]diazepin-5-yl)benzamide], for which the IC50 in assay [1] (setting [5]) is 5 to 15 µM; in assay [2] (Table 10), 0.1 to 1 µM.

For `O=C(NO)c1ccc(C2=Nc3ccc(C(F)(F)F)nc3Oc3ccccc32)cc1` [(Z)-N-hydroxy-4-(2-(trifluoromethyl)benzo[f]pyrido[2,3-b][1,4]oxazepin-6-yl)benzamide], the figures for the IC50 in assay [1] (setting [3]) and in assay [2] (Table 8) were 5 to 15 µM and 0.05 to 0.1 µM, respectively.

Turning to `COc1cccc2c1Oc1ccc(C(F)(F)F)cc1N=C2c1ccc(C(=O)NO)cc1` [(Z)-N-hydroxy-4-(4-methoxy-8-(trifluoromethyl)dibenzo[b,f][1,4]oxazepin-11-yl)benzamide], the values for the IC50 in assay [1] (setting [3]) and in assay [2] (Table 8) were 5 to 15 µM and 0.1 to 1 µM, respectively.

For the compound `O=C(NO)c1ccc(C2=Nc3ccccc3N(CCN3CCOCC3)c3ncccc32)cc1` [(Z)-N-hydroxy-4-(11-(2-morpholinoethyl)-11H-benzo[b]pyrido[2,3-e][1,4]diazepin-5-yl)benzamide], the IC50 in assay [1] (setting [3]) lay in the range of 1 to 5 µM; in assay [2] (Table 8), 0.05 to 0.1 µM.

`O=C(NO)c1ccc(C2=Nc3ccccc3N(CCCN3CCOCC3)c3ncccc32)cc1` [(Z)-N-hydroxy-4-(11-(3-morpholinopropyl)-11H-benzo[b]pyrido[2,3-e][1,4]diazepin-5-yl)benzamide]: the 50% inhibitory concentration (IC50) in assay [1] (setting [3]) fell in the range of 1 to 5 µM; in assay [2] (Table 8), 0.1 to 1 µM.

For `CC(C)N1c2ccccc2N=C(c2ccc(C(=O)NO)cc2)c2cccnc21` [(Z)-N-hydroxy-4-(11-isopropyl-11H-benzo[b]pyrido[2,3-e][1,4]diazepin-5-yl)benzamide], the IC50 was under 1 µM in assay [1] (setting [3]) and under 0.05 µM in assay [2] (Table 8).

Consider `O=C(CCCCCN1C(=O)CN=C(c2ccccc2)c2ccccc21)NO` [(Z)-N-hydroxy-6-(2-oxo-5-phenyl-2,3-dihydro-1H-benzo[e][1,4]diazepin-1-yl)hexanamide], for which the IC50 in assay [1] (setting [5]) was in the range of 1 to 5 µM; in assay [2] (Table 10) it was 0.1 to 1 µM.

`O=C(CCCCCCCN1C(=O)CN=C(c2ccccc2)c2ccccc21)NO` [(Z)-N-hydroxy-8-(2-oxo-5-phenyl-2,3-dihydro-1H-benzo[e][1,4]diazepin-1-yl)octanamide]: the IC50 is 1 to 5 µM in assay [1] (setting [5]) and 0.1 to 1 µM in assay [2] (Table 10).

Turning to `COc1cccc2c1C(c1ccc(C(=O)NO)cc1)=Nc1ccccc1O2` [(Z)—N-hydroxy-4-(1-methoxydibenzo[b,f][1,4]oxazepin-11-yl)benzamide], the results for the IC50 in assay [1] (setting [3]) and in assay [2] (Table 8) were over 15 µM and 0.1 to 1 µM, respectively.

Take `COc1ccc2c(c1)C(c1ccc(C(=O)NO)cc1)=Nc1ccccc1O2` [(Z)—N-hydroxy-4-(2-methoxydibenzo[b,f][1,4]oxazepin-11-yl)benzamide]: the IC50 lay in the range of 5 to 15 µM in assay [1] (setting [3]) and 0.1 to 1 µM in assay [2] (Table 8).

As to `O=C(NO)c1ccc(C2=Nc3ccccc3Oc3cc(C(F)(F)F)ccc32)cc1` [(Z)—N-hydroxy-4-(3-(trifluoromethyl)dibenzo[b,f][1,4]oxazepin-11-yl)benzamide], the IC50 was over 15 µM in assay [1] (setting [3]) and 0.05 to 0.1 µM in assay [2] (Table 8).

Consider `COc1ccc2c(c1)Oc1ccccc1N=C2c1ccc(C(=O)NO)cc1` [(Z)—N-hydroxy-4-(3-methoxydibenzo[b,f][1,4]oxazepin-11-yl)benzamide], for which the values for the IC50 in assay [1] (setting [3]) and in assay [2] (Table 8) were 1 to 5 µM and 0.1 to 1 µM, respectively.

Turning to `Cc1ccc2c(c1)Oc1ccccc1N=C2c1ccc(C(=O)NO)cc1` [(Z)—N-hydroxy-4-(3-methyldibenzo[b,f][1,4]oxazepin-11-yl)benzamide], the IC50 is 1 to 5 µM in assay [1] (setting [3]) and under 0.05 µM in assay [2] (Table 8).

Turning to `O=C(NO)c1ccc(C2=Nc3ccccc3Oc3cc(N4CCOCC4)ccc32)cc1` [(Z)—N-hydroxy-4-(3-morpholinodibenzo[b,f][1,4]oxazepin-11-yl)benzamide], the IC50 lay in the range of 5 to 15 µM in assay [1] (setting [3]) and 0.1 to 1 µM in assay [2] (Table 8).

For `COCCOc1cccc2c1Oc1ccccc1N=C2c1ccc(C(=O)NO)cc1` [(Z)—N-hydroxy-4-(4-(2-methoxyethoxy)dibenzo[b,f][1,4]oxazepin-11-yl)benzamide], the IC50 is 1 to 5 µM in assay [1] (setting [3]) and under 0.05 µM in assay [2] (Table 8).

The record behind these values is patent publication US20170000749A1, “Methods for Treating Cognitive Disorders Using Inhibitors of Histone Deacetylase” (Forum Pharmaceuticals, Inc., priority 2008, published 2017).
